# Experimental data reported in patent US20240335464A1, “ADMINISTRATION OF STING AGONIST, CHECKPOINT INHIBITORS, AND RADIATION” (Takeda Pharmaceutical Company Limited, priority 2020, published 2024).
# Test system: CT26 murine colorectal carcinoma tumor
# Experiment: Study 4: CT26 subcutaneous tumor model, anti-tumor efficacy
# Assay type: in vivo, female Balb/c mice
# Settings: for GRI (%) Day 11: vs vehicle
# Description: Study 4: CT26 is a murine colorectal carcinoma cell line. Eight-week-old female Balb/c mice (Jackson Labs, Maine) were inoculated subcutaneously with 0.2×10^6 CT26 tumor cells and monitored for tumor growth. Once the tumors reached an average of 100-125 mm^3, animals were irradiated with either mock irradiation or 8 Gy of focal beam irradiation (Study Day 0). Animals were then dosed intravenously with either vehicle (PBS) or 0.25 mg/kg of Compound No. 14 on a QW×3 schedule beginning on Study Day 1. Anti-mPD-1 antibody (clone RMP1-14, BioXCell) treatment was administered intraperitoneally twice weekly starting on Study Day 1 with a concentration of 10 mg/kg for 3 weeks. Animals were monitored for tumor volumes and body weight changes twice weekly throughout the study once they reached their humane endpoint. GRI was calculated on the last day with animals remaining in the vehicle group (Study Day 11).
# Study 4: A 5 mg/mL stock solution of Compound No. 14 was formulated in PBS at the final concentration of 0.0667 mg/mL and administered intravenously (IV). Final doses received were 0.25 mg/kg. […] Compound No. 14 was administered on a QW schedule for 3 doses in single agent treatment group and in combination treatment groups beginning on Day 1. Dose formulation of Compound No. 14 was prepared once and utilized for dosing on each treatment day.
# Anti-mPD-1 or isotype control was administered concurrent with Compound No. 14 or vehicle control on a BIW schedule for 3 doses in single agent treatment groups and in combination treatment groups.
# Studies 4 and 5: Radiation treatment for Studies 4 and 5 were performed using focal beam radiation with volumentric image guidance from computer tomography scans on the SmART (Small animal image-guided radiotherapy) platform (Precision XRay Inc., North Branford, CT). Animals received 4.52 Gy/min of radiation and approximately 1.8 min was needed to reach 8 Gy dose delivery (Study 4) or […] was needed to reach 16 Gy dose delivery (Study 5). Animals were anesthetized during imaging and radiation treatment using 1-2% isoflurane.
# Growth Rate Inhibition: The differences in the tumor growth trends over time between pairs of treatment groups were assessed by fitting each animal's data to a simple exponential growth model and comparing the mean growth rates of the two groups, as described in more detail below. The difference in the growth rates was summarized by the GRI, which is the reduction in growth rate experienced by the treatment group relative to that of the reference group, expressed as a fraction of the vehicle growth rate.
# μT and μC are the mean tumor growth rates for the treatment and reference groups, respectively. μV is the mean tumor growth rate for the vehicle group, which in most cases is the same as the reference group.
# A GRI greater than 100% is interpreted as tumor regression when the vehicle group is the same as the reference group. A negative value of the GRI means that the tumors in the treatment group grew faster than the tumors in the reference group. Statistical significance was determined using an unpaired t-test.
# Tumor Growth Rate Computation: Low tumor volumes can cause problems with the data analysis, so all measurements below 25 cubic mm (including 0 values) were excluded from the analysis. After this exclusion step, the tumor volume was assumed to follow an exponential growth model. More specifically, for a given animal and treatment group,
# where Vi is the tumor volume at the i^th time point. Here, a is the initial log volume, b is the tumor growth rate, and t1 is the measurement time in days. εi is the residual error term, which was assumed to be uncorrelated and drawn from a normal distribution.
# This model was fit separately for each animal within each treatment group. If an animal was sacrificed or died early, but at least two unique time points were measured (including baseline), then the data up to that point was used to estimate the growth rate. […]
# [1] = TG02 Compound No. 14 0.25 mg/kg QWx3 IV, single agent
# [2] = TG05 Compound No.14 0.25 mg/kg QWx3 IV + Radiation 8 Gy, through Day 11
smiles,measurement,setting,value
Nc1ncnc2c1ncn2[C@@H]1O[C@@H]2COP(=O)(S)O[C@@H]3[C@H](O)[C@@H](COP(=O)(S)O[C@H]2[C@H]1F)O[C@H]3n1cc(F)c2c(=O)[nH]cnc21 (stereo partly drawn) [Compound No. 14],Number of Animals Removed,[1],0
same,GRI (%) Day 11,[1],13%
same,Number of Animals Removed,TG05 Compound No. 14 0.25 mg/kg QWx3 IV + Radiation 8 Gy,0
same,GRI (%) Day 11,TG05 Compound No. 14 0.25 mg/kg QWx3 IV + Radiation 8 Gy (Day 0),88%
same,Combination Assessment,[2],Additive
same,Synergy Score %,[2],−12%
